What was measured:
[1] = Half life period after oral administration (2.5 mg/kg) in monkey was determined; assay type: ADME, organism-based; details: cercopithecidae, in vivo
[2] = Bioavailability after oral administration (2.5 mg/kg) in dog was determined; assay type: ADME, organism-based, Canis lupus familiaris; details: in vivo
[3] = The peak blood concentration after 5 hr administration (2.5 mg/kg) in dog was determined; assay type: ADME, organism-based, Canis lupus familiaris; parameters: dose 2.5 mg/kg
[4] = The peak plasma concentration after 5 hr administration (2.5 mg/kg) in monkey was determined; assay type: ADME, organism-based; parameters: dose 2.5 mg/kg; details: cercopithecidae
[5] = Bioavailability after oral administration (2.5 mg/kg) in monkey was determined; assay type: ADME, organism-based; details: cercopithecidae, in vivo
[6] = Volume distribution after oral administration (2.5 mg/kg) in monkey was determined; assay type: ADME, organism-based; details: cercopithecidae, in vivo
[7] = Plasma clearance after oral administration (2.5 mg/kg) in monkey was determined; assay type: ADME, organism-based; details: cercopithecidae, read-out: Clp (converted)
[8] = Half life period after oral administration (2.5 mg/kg) in dog was determined; assay type: ADME, organism-based, Canis lupus familiaris; details: in vivo
[9] = Plasma clearance after oral administration (2.5 mg/kg) in dog was determined; assay type: ADME, organism-based, Canis lupus familiaris; details: read-out: Clp (converted)
[10] = target: T1, Alpha-2C adrenergic receptor (Homo sapiens, UniProt P18825); test: Binding affinity towards human Alpha-2C adrenergic receptor
T1 sequence (P18825 whole entry): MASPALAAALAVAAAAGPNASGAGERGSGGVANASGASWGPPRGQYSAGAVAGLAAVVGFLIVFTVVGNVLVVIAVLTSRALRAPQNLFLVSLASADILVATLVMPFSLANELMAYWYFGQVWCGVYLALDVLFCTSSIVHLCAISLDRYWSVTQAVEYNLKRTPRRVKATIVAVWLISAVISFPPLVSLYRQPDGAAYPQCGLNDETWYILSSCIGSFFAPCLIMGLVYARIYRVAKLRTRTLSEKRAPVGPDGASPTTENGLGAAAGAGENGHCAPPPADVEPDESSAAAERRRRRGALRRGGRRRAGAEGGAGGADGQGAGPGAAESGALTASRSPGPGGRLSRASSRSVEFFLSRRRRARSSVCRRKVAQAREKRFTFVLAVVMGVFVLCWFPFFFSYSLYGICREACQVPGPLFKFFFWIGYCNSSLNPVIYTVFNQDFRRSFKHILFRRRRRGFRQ

[11] = target: Sodium-dependent dopamine transporter (Homo sapiens, UniProt Q01959); test: Binding affinity towards human UPTK-DA transporter
Sequence of Sodium-dependent dopamine transporter (Q01959 whole entry): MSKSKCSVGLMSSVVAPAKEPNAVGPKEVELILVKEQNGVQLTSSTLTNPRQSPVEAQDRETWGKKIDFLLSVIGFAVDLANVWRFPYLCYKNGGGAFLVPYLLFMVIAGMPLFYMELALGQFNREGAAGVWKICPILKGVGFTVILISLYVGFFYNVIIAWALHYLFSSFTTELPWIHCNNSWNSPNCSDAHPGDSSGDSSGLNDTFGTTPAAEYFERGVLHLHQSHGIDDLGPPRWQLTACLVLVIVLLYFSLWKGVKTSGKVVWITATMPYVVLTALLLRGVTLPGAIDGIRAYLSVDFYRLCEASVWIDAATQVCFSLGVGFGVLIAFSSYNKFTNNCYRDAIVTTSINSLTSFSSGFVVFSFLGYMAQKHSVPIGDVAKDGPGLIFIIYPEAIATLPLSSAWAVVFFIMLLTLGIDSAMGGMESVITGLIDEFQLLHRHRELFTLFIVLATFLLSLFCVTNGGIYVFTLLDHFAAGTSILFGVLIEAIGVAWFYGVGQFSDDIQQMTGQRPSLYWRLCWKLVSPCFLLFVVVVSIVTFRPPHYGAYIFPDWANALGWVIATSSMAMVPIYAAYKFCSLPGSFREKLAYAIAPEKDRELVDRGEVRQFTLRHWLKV

D(4) dopamine receptor = target: T2, D(4) dopamine receptor (Homo sapiens, UniProt P21917); test: Binding affinity towards human D4.2 receptor
T2 sequence (P21917 whole entry): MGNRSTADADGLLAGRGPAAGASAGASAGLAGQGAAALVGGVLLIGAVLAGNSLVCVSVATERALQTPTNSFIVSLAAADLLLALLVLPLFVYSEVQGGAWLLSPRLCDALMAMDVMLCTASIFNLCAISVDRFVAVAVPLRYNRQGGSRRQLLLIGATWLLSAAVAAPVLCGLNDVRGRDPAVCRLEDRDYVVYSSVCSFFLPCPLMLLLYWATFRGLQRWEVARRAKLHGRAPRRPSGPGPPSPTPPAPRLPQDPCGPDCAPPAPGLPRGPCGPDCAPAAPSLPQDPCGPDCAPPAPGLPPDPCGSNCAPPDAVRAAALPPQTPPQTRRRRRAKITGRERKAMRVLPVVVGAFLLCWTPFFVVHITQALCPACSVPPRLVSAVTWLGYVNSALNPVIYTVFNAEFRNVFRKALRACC

Histamine H3 receptor [12] = target: T3, Histamine H3 receptor (Homo sapiens, UniProt Q9Y5N1); test: Binding affinity for human recombinant H3 receptor
T3 sequence (Q9Y5N1 whole entry): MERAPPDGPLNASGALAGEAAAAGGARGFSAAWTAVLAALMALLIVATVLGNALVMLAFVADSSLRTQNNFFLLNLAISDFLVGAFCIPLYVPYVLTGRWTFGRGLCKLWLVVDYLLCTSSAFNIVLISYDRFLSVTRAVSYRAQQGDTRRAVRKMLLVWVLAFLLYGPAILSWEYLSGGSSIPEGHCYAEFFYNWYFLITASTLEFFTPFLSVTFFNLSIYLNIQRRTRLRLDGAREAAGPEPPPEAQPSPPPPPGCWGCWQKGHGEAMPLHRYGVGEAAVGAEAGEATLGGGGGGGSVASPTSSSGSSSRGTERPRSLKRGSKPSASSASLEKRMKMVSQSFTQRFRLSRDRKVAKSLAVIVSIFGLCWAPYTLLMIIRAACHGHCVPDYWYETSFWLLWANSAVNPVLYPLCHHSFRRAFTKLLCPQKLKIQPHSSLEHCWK

Histamine H1 receptor = Histamine H1 receptor (Homo sapiens, UniProt P35367); test: Binding affinity towards human histaminergic (H1) receptor
Sequence of Histamine H1 receptor (P35367 whole entry): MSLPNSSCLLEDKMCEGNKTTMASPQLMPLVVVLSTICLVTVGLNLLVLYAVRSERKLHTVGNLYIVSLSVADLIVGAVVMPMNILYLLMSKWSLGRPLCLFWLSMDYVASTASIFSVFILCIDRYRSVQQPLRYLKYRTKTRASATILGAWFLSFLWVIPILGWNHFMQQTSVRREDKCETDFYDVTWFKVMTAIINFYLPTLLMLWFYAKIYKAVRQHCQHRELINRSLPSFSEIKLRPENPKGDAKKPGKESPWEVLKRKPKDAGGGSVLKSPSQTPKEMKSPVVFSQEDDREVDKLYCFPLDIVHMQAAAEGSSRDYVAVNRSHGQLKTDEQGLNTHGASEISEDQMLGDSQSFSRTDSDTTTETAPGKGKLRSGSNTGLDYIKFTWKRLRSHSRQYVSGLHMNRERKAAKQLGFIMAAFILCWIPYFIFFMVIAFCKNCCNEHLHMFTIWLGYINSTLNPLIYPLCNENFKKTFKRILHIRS

Histamine H3 receptor [13] = target: T3, Histamine H3 receptor; test: Affinity to bind with human cloned H3 receptor using radioligand binding assay; details: read-out: pA2 (converted)
[14] = target: T4, Muscarinic acetylcholine receptor M2 (Homo sapiens, UniProt P08172); test: Binding affinity towards human muscarinic M2 receptor
T4 sequence (P08172 whole entry): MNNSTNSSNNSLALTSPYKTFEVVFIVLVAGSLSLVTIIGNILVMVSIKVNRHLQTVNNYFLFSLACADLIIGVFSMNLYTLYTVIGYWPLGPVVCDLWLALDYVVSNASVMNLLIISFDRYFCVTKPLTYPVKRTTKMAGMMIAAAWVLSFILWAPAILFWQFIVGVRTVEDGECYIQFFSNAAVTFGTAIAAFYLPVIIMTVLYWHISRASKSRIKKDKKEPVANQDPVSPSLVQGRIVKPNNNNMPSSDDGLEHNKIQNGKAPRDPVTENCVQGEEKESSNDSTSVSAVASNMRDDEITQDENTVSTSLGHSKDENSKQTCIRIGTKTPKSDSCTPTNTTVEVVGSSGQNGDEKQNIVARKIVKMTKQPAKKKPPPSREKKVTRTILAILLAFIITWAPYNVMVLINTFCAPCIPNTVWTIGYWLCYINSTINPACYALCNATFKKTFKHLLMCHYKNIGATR

[15] = target: T5, Muscarinic acetylcholine receptor M1 (Homo sapiens, UniProt P11229); test: Binding affinity towards human muscarinic M1 receptor
T5 sequence (P11229 whole entry): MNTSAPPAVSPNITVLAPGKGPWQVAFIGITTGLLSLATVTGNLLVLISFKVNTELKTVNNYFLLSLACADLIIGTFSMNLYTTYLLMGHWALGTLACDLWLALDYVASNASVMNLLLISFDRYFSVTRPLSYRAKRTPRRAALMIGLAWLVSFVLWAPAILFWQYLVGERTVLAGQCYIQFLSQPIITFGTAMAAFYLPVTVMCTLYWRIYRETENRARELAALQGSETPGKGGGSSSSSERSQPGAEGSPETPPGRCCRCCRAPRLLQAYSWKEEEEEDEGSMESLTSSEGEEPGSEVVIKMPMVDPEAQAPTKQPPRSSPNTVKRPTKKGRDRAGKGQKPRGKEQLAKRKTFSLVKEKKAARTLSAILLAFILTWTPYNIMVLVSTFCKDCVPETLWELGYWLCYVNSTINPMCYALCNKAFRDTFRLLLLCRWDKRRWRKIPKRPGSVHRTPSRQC

[16] = target: Sodium-dependent noradrenaline transporter (Homo sapiens, UniProt P23975); test: Binding affinity towards human UPTK-NE transporter
Sequence of Sodium-dependent noradrenaline transporter (P23975 whole entry): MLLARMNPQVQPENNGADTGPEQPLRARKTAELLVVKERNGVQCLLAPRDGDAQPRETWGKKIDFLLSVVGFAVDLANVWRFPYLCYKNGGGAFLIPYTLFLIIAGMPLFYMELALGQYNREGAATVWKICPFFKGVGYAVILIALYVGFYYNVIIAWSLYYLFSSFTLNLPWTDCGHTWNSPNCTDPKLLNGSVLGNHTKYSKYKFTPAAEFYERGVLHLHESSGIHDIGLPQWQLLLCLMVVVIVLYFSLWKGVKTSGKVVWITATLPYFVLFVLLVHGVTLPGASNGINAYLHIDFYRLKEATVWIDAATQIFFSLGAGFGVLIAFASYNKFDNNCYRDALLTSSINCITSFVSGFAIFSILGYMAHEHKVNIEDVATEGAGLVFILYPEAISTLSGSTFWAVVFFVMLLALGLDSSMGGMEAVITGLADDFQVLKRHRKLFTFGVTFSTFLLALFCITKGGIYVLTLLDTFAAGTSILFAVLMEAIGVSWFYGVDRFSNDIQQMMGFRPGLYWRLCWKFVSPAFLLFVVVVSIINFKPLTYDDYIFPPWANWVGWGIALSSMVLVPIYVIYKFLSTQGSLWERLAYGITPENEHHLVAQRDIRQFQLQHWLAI

[17] = target: Muscarinic acetylcholine receptor M3 (Homo sapiens, UniProt P20309); test: Binding affinity towards human muscarinic M3 receptor
Sequence of Muscarinic acetylcholine receptor M3 (P20309 whole entry): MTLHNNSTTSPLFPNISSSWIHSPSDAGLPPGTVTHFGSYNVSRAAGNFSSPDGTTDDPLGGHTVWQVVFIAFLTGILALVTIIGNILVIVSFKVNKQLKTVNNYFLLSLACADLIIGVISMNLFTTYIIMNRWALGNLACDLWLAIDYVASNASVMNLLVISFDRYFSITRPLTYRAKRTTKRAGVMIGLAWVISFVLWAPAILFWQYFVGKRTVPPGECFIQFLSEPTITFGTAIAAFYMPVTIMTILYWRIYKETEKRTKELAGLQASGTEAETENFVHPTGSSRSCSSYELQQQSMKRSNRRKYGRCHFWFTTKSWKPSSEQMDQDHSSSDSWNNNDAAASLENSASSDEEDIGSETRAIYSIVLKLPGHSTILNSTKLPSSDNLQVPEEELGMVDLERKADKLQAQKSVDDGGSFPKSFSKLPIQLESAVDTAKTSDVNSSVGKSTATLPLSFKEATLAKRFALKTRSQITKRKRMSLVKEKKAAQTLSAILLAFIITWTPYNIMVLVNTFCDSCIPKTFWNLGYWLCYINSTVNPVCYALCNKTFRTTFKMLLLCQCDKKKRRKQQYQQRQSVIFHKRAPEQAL

Cavia porcellus = organism: Cavia porcellus; test: Compound was tested for blocked alpha-methylhistamine-induced inhibition of electrical field-stimulation induced twitch response in guinea pig ileum; assay type: functional; details: read-out: pA2 (converted)
[18] = target: Sodium-dependent serotonin transporter (Homo sapiens, UniProt P31645); test: Binding affinity towards human UPTK-Serotonin transporter
Sequence of Sodium-dependent serotonin transporter (P31645 whole entry): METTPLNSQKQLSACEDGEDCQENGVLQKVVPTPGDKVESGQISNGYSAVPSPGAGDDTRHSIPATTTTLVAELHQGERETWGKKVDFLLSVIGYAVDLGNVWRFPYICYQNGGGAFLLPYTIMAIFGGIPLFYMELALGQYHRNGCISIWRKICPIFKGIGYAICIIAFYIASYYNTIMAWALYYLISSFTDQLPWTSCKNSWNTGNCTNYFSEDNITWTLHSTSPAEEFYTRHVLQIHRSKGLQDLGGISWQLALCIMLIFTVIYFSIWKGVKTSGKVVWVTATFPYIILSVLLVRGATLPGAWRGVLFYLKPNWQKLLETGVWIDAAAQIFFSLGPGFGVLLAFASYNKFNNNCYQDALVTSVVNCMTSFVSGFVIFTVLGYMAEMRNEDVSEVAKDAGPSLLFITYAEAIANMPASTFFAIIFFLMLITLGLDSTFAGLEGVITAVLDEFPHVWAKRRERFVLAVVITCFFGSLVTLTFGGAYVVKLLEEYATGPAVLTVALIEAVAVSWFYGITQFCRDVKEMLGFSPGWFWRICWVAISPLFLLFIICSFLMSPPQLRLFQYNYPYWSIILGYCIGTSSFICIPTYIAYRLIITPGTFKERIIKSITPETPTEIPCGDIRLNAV

Histamine H4 receptor = Histamine H4 receptor (Homo sapiens, UniProt Q9H3N8); test: Binding affinity towards human histaminergic (H4) receptor
Histamine H2 receptor = Histamine H2 receptor (Homo sapiens, UniProt P25021); test: Binding affinity towards human histaminergic (H2) receptor
Sequence of Histamine H2 receptor (P25021 whole entry): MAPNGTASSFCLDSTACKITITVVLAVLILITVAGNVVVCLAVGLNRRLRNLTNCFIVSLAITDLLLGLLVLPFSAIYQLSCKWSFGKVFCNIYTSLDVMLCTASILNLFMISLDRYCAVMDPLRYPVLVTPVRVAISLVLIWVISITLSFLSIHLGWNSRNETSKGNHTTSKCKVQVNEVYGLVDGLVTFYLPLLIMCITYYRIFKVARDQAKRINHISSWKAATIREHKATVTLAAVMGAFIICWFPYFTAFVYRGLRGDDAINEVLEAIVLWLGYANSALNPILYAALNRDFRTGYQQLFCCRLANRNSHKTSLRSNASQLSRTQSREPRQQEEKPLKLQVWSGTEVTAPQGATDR

[19] = target: Histamine H3 receptor (Rattus norvegicus) (UniProt Q9QYN8); details: Brain
Sequence of Histamine H3 receptor (Rattus norvegicus) (Q9QYN8 whole entry): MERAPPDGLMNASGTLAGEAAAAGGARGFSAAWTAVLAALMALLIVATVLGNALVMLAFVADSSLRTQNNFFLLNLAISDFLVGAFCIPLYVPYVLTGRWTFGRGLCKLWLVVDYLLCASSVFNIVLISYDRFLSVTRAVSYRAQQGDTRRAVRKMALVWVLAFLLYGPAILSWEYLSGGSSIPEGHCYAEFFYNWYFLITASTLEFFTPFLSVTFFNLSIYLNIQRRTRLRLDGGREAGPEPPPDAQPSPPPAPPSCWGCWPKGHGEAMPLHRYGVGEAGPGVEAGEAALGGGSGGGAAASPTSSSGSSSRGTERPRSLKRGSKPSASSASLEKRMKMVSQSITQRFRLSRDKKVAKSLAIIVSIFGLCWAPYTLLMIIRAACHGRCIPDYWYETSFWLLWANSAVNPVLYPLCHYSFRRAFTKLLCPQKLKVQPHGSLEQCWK

- half-life [1]: 5.3 h
- bioavailability [2]: 33%
- Cmax [3]: 310 ng/mL
- Cmax [4]: 170 ng/mL
- bioavailability [5]: 78%
- Vbeta [6]: 7.5 L/kg
- CL/F [7]: 16.7 mL/min/kg
- half-life [8]: 2.6 h
- CL/F [9]: 10 mL/min/kg
- Ki [10]: 1620 nM
- Ki [11]: 4900 nM
- Ki (D(4) dopamine receptor): 9770 nM
- Ki (Histamine H3 receptor [12]): 0.49 nM
- Ki (Histamine H1 receptor): 2340 nM
- Kb (Histamine H3 receptor [13]): 2.14 nM
- Ki [14]: 933 nM
- Ki [15]: 1620 nM
- Ki [16]: 9770 nM
- Ki [17]: 1660 nM
- Ki [18]: 3550 nM
- Ki (Histamine H4 receptor): 10000 nM
- Ki (Histamine H2 receptor): 10000 nM
- pKb [19]: 9.23
Compound: C[C@H]1CC[C@H](C)N1CCCOc1ccc(-c2ccc(C(=O)N3CCOCC3)cc2)cc1 [A-349,821]
- Kb (Cavia porcellus): 0.339 nM

Reference: ChEMBL document CHEMBL1136688, “Synthesis and SAR of aminoalkoxy-biaryl-4-carboxamides: novel and selective histamine H3 receptor antagonists” (Bioorg Med Chem Lett, 2003)
